Test: xn = mol fraction of the nth substance listed
Settings: Liquid, Pycnometric method

COC(=O)OC [dimethyl carbonate] + O=C=O
Settings | mass density [kg/m3]
323.15 K, 9620 kPa, x1 = 0.0242 | 495
323.15 K, 9710 kPa, x1 = 0.0242 | 509
323.15 K, 9740 kPa, x1 = 0.118 | 852
323.15 K, 9750 kPa, x1 = 0.0481 | 666
323.15 K, 9760 kPa, x1 = 0.086 | 792
323.15 K, 9760 kPa, x1 = 0.1484 | 883
323.15 K, 9800 kPa, x1 = 0.0242 | 523
323.15 K, 9900 kPa, x1 = 0.0242 | 536
323.15 K, 9930 kPa, x1 = 0.0242 | 541
323.15 K, 10010 kPa, x1 = 0.0481 | 683
323.15 K, 10220 kPa, x1 = 0.118 | 859
323.15 K, 10280 kPa, x1 = 0.086 | 803
323.15 K, 10280 kPa, x1 = 0.1484 | 888
323.15 K, 10350 kPa, x1 = 0.0481 | 700
323.15 K, 10740 kPa, x1 = 0.086 | 813
323.15 K, 10740 kPa, x1 = 0.118 | 866
323.15 K, 10740 kPa, x1 = 0.1484 | 893
323.15 K, 10780 kPa, x1 = 0.0481 | 719
323.15 K, 11230 kPa, x1 = 0.086 | 822
323.15 K, 11230 kPa, x1 = 0.118 | 872
323.15 K, 11230 kPa, x1 = 0.1484 | 897
323.15 K, 11360 kPa, x1 = 0.0481 | 739
323.15 K, 11670 kPa, x1 = 0.086 | 829
323.15 K, 11750 kPa, x1 = 0.118 | 878
323.15 K, 11760 kPa, x1 = 0.1484 | 901
323.15 K, 11870 kPa, x1 = 0.0481 | 754
323.15 K, 12240 kPa, x1 = 0.1484 | 905
323.15 K, 12270 kPa, x1 = 0.118 | 883
323.15 K, 12310 kPa, x1 = 0.086 | 839
323.15 K, 12390 kPa, x1 = 0.0481 | 768
323.15 K, 12740 kPa, x1 = 0.086 | 844
323.15 K, 12750 kPa, x1 = 0.118 | 888
323.15 K, 12770 kPa, x1 = 0.1484 | 910
323.15 K, 12920 kPa, x1 = 0.0481 | 780
323.15 K, 13190 kPa, x1 = 0.086 | 851
323.15 K, 13260 kPa, x1 = 0.1484 | 913
323.15 K, 13310 kPa, x1 = 0.118 | 894
323.15 K, 13550 kPa, x1 = 0.0481 | 792
323.15 K, 13740 kPa, x1 = 0.086 | 857
323.15 K, 13760 kPa, x1 = 0.1484 | 918
323.15 K, 13830 kPa, x1 = 0.118 | 898
323.15 K, 14230 kPa, x1 = 0.086 | 863
323.15 K, 14270 kPa, x1 = 0.118 | 902
323.15 K, 14330 kPa, x1 = 0.1484 | 922
323.15 K, 14730 kPa, x1 = 0.086 | 868
323.15 K, 14750 kPa, x1 = 0.118 | 907
323.15 K, 14820 kPa, x1 = 0.1484 | 925
323.15 K, 15220 kPa, x1 = 0.086 | 873
323.15 K, 15250 kPa, x1 = 0.118 | 911
323.15 K, 15510 kPa, x1 = 0.1484 | 930
323.15 K, 15660 kPa, x1 = 0.086 | 878
323.15 K, 15740 kPa, x1 = 0.118 | 914
323.15 K, 16130 kPa, x1 = 0.086 | 883
323.15 K, 16420 kPa, x1 = 0.1484 | 936
323.15 K, 16430 kPa, x1 = 0.118 | 920
327.95 K, 8540 kPa, x1 = 0.1484 | 839
327.95 K, 8840 kPa, x1 = 0.1484 | 844
327.95 K, 8920 kPa, x1 = 0.118 | 801
327.95 K, 9150 kPa, x1 = 0.0242 | 333
327.95 K, 9160 kPa, x1 = 0.118 | 806
327.95 K, 9180 kPa, x1 = 0.0242 | 337
327.95 K, 9250 kPa, x1 = 0.0242 | 344
327.95 K, 9290 kPa, x1 = 0.1484 | 850
327.95 K, 9320 kPa, x1 = 0.0242 | 352
327.95 K, 9320 kPa, x1 = 0.086 | 724
327.95 K, 9400 kPa, x1 = 0.0242 | 359
327.95 K, 9470 kPa, x1 = 0.0242 | 369
327.95 K, 9470 kPa, x1 = 0.118 | 812
327.95 K, 9540 kPa, x1 = 0.0242 | 378
327.95 K, 9620 kPa, x1 = 0.0242 | 387
327.95 K, 9690 kPa, x1 = 0.0242 | 397
327.95 K, 9720 kPa, x1 = 0.086 | 740
327.95 K, 9750 kPa, x1 = 0.1484 | 856
327.95 K, 9760 kPa, x1 = 0.118 | 818
327.95 K, 9770 kPa, x1 = 0.0242 | 407
327.95 K, 9860 kPa, x1 = 0.0242 | 418
327.95 K, 9950 kPa, x1 = 0.0242 | 430
327.95 K, 9990 kPa, x1 = 0.086 | 750
327.95 K, 10040 kPa, x1 = 0.0242 | 442
327.95 K, 10120 kPa, x1 = 0.0242 | 453
327.95 K, 10240 kPa, x1 = 0.118 | 827
327.95 K, 10240 kPa, x1 = 0.1484 | 862
327.95 K, 10400 kPa, x1 = 0.086 | 762
327.95 K, 10740 kPa, x1 = 0.086 | 772
327.95 K, 10740 kPa, x1 = 0.118 | 835
327.95 K, 10770 kPa, x1 = 0.1484 | 868
327.95 K, 11180 kPa, x1 = 0.086 | 782
327.95 K, 11220 kPa, x1 = 0.118 | 842
327.95 K, 11260 kPa, x1 = 0.1484 | 873
327.95 K, 11650 kPa, x1 = 0.086 | 792
327.95 K, 11720 kPa, x1 = 0.118 | 849
327.95 K, 11760 kPa, x1 = 0.1484 | 878
327.95 K, 12200 kPa, x1 = 0.118 | 855
327.95 K, 12210 kPa, x1 = 0.086 | 802
327.95 K, 12260 kPa, x1 = 0.1484 | 883
327.95 K, 12680 kPa, x1 = 0.118 | 861
327.95 K, 12750 kPa, x1 = 0.086 | 812
327.95 K, 12800 kPa, x1 = 0.1484 | 888
327.95 K, 13200 kPa, x1 = 0.086 | 819
327.95 K, 13310 kPa, x1 = 0.1484 | 893
327.95 K, 13320 kPa, x1 = 0.118 | 868
327.95 K, 13680 kPa, x1 = 0.086 | 826
327.95 K, 13780 kPa, x1 = 0.118 | 873
327.95 K, 13800 kPa, x1 = 0.1484 | 897
327.95 K, 14170 kPa, x1 = 0.086 | 833
327.95 K, 14240 kPa, x1 = 0.1484 | 901
327.95 K, 14310 kPa, x1 = 0.118 | 879
327.95 K, 14710 kPa, x1 = 0.086 | 840
327.95 K, 14780 kPa, x1 = 0.1484 | 905
327.95 K, 14800 kPa, x1 = 0.118 | 884
327.95 K, 15160 kPa, x1 = 0.086 | 846
327.95 K, 15260 kPa, x1 = 0.118 | 888
327.95 K, 15300 kPa, x1 = 0.1484 | 909
327.95 K, 15660 kPa, x1 = 0.086 | 852
327.95 K, 15740 kPa, x1 = 0.118 | 892
327.95 K, 15860 kPa, x1 = 0.1484 | 913
327.95 K, 16180 kPa, x1 = 0.086 | 858
327.95 K, 16330 kPa, x1 = 0.118 | 897
327.95 K, 16560 kPa, x1 = 0.1484 | 918
328.15 K, 9640 kPa, x1 = 0.0481 | 532
328.15 K, 9710 kPa, x1 = 0.0481 | 543
328.15 K, 9800 kPa, x1 = 0.0481 | 556
328.15 K, 9910 kPa, x1 = 0.0481 | 570
328.15 K, 10030 kPa, x1 = 0.0481 | 585
328.15 K, 10180 kPa, x1 = 0.0481 | 600
328.15 K, 10340 kPa, x1 = 0.0481 | 615
328.15 K, 10540 kPa, x1 = 0.0481 | 632
328.15 K, 10720 kPa, x1 = 0.0481 | 645
328.15 K, 10940 kPa, x1 = 0.0481 | 659
328.15 K, 11190 kPa, x1 = 0.0481 | 673
328.15 K, 11350 kPa, x1 = 0.0481 | 681
332.85 K, 9040 kPa, x1 = 0.0242 | 282
332.85 K, 9110 kPa, x1 = 0.0242 | 287
332.85 K, 9180 kPa, x1 = 0.1484 | 814
332.85 K, 9200 kPa, x1 = 0.0242 | 292
332.85 K, 9270 kPa, x1 = 0.0242 | 298
332.85 K, 9350 kPa, x1 = 0.0242 | 305
332.85 K, 9430 kPa, x1 = 0.0242 | 311
332.85 K, 9520 kPa, x1 = 0.0242 | 318
332.85 K, 9620 kPa, x1 = 0.118 | 768
332.85 K, 9620 kPa, x1 = 0.1484 | 821
332.85 K, 9640 kPa, x1 = 0.0242 | 329
332.85 K, 9720 kPa, x1 = 0.0242 | 336
332.85 K, 9810 kPa, x1 = 0.0242 | 344
